{"source": "patent US20040009952A1", "about": "“TGF-beta gene overexpression preventing substances for the treatment of disorders connected with pathological overexpression of TGF-beta” (priority 1998, published 2004)", "system": "TGF-β1 mRNA", "assay": "Glucose- or PMA-induced TGF-β1 mRNA overexpression in porcine mesangial cells (RT-PCR, capillary electrophoresis)", "type": "cell-based", "conditions": "PMA; 10 μg/ml GAG; PMA alone 312; mean of 2 determinations", "from_the_text": "To assess the inhibitory activity of the GAG action on TGF-β1 overexpression an in vitro assay was established. In this assay structurally distinct GAGs were investigated for their activity to inhibit stimulated TGF-β1 mRNA overexpression in cultured target cell. For the development of glomerulosclerosis (e.g. diabetes) mesangial cells are one major pathological target. Mesangial cells were isolated, characterized and grown as decribed by Kolm et al. Am. J. Physiol. 270: F812-F821, 1996. Cells were stimulated with PMA in the presence and absence of a variety of 10 μg/ml of GAGs and related compounds. Cellular mRNA TGF-β1I levels were determined as decribed in Example II.\nThe separation and the precise quantification of the PCR products was performed on a Biofocus 3000 capillary electrophoresis system equipped with a laser-induced fluorescence detector (Bio-Rad, Munich, Germany) using an argon-ion laser. Excitation power was approximately 3.5 mW at =488 nm, and fluorescence emission was detected after passing through a 520 nm band pass filter. […] For on-column DNA fluorescence labeling, 1 μl Syber Green I (Molecular probes, Eugene, Or, USA) was addes per ml. […] The migration time for the PCR products was 5.2 min for TGF-β1 (161 bp) and 6.5 min for GAPDH (983 bp) All peak areas were calculated automatically using Biofocus Integration Software. […]", "data": [{"substance": "chitosan-6-sulfate", "values": [{"measurement": "TGF-β1 mRNA", "result": "116 % of control"}]}]}
